Data set [1] deals with T1, human GnRH receptor (Homo sapiens, UniProt P30968).
T1 construct: expressed in transfected cells; host or cells: HEK 293 (hGnRH-R/293, from Dr. Stuart Sealfon)
T1 sequence (P30968 1-328): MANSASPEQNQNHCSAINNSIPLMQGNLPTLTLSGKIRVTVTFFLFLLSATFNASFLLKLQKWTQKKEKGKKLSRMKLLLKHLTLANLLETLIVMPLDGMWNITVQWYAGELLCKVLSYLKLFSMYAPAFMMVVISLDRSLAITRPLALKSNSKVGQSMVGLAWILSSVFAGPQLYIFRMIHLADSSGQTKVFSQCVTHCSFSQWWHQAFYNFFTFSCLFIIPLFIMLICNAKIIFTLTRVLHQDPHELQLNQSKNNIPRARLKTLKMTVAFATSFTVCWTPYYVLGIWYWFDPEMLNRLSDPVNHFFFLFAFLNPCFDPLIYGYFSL
Briefly: Radioligand binding, 125I-GnRH-A displacement, membranes of HEK 293 cells with human GnRH receptor. As to conditions: read-out: hGnRH IC50. An outline of the steps:
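Bound tracer was separated by filtration through polyethyleneimine-soaked GF/C filters and counted by liquid scintillation. IC50 from curve fitting; other species were tested under the same conditions.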

Data set [2] deals with T2, rat GnRH receptor (Rattus norvegicus, UniProt P30969).
T2 sequence (P30969 1-327): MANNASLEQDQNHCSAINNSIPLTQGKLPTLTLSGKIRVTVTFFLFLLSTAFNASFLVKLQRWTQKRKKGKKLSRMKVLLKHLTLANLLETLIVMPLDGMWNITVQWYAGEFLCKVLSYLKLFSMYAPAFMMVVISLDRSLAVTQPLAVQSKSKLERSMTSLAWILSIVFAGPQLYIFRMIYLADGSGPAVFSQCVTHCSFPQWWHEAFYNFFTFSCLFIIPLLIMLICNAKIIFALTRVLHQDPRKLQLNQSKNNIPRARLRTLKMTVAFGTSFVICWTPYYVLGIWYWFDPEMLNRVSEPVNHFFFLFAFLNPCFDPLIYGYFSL
Briefly: Radioligand binding, 125I-GnRH-A, rat pituitary membranes. As to conditions: read-out: rGnRH IC50. On the set-up: membranes were prepared from rat pituitary; from tissue; host or cells: rat pituitary. On the procedure:
All compounds were diluted in 1% DMSO (final assay concentration) in binding assay buffer. […] Reactions were terminated by rapid filtration onto 96-well Packard GF/C filters soaked in 0.1% polyethyleneimine. Filters were washed three times with PBS buffer, dried and counted on a Packard Topcount by liquid scintillation counting.
Assay conditions were identical for assessing compound activities at other species. […] IC50 values for control peptides and test compounds were calculated utilizing GraphPad Prism™ software.
The reaction mixture was vortexed and incubated for 1 min at room temperature. After one min, the mixture was vortexed and allowed to incubate for an additional minute. 2 ml of 0.5 M acetic acid/1% BSA was added to the reaction tube and the mixture was added to a C18 Sep-Pak cartridge. The cartridge was washed with subsequent washes of 5 ml H2O and 5 ml 0.5M acetic acid and then eluted with 5×1 ml of 60% CH3CN/40% 0.5M acetic acid. The eluate was diluted with 3× volume of HPLC buffer A (0.1% TFA in H2O) and loaded onto a C18 column. […] The radioactive fractions (750 ed/fraction) are collected into clean polypropylene tubes containing 100 μl of 10% BSA. Fractions were assessed for biological activity by radioligand binding.

The target in data set [3] is T3, mouse GnRH receptor (Mus musculus, UniProt Q01776).
T3 construct: expressed in transfected cells; host or cells: 293 cells
T3 sequence (Q01776 1-327): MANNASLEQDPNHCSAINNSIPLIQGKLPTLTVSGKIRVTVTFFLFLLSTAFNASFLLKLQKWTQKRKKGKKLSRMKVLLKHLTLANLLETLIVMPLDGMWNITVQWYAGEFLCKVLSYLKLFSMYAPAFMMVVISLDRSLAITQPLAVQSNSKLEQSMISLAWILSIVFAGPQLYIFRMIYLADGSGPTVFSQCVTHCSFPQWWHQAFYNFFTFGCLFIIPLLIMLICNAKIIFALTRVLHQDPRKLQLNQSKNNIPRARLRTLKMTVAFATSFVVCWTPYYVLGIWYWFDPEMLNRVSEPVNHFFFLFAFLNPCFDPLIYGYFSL
Briefly: Radioligand binding, 125I-GnRH-A, 293 cells expressing mouse GnRH receptors. The conditions noted are these: read-out: mGnRH IC50. In short, it runs like this:
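Bound label captured on 0.1% polyethyleneimine-treated GF/C filters, washed three times with PBS, counted. IC50 derived; identical set-up for every species.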

Data set [4] deals with LH levels in castrated rats. Briefly: Castrated male rat model, LH suppression. It counts as in vivo. From the text: Experimental Protocol: Male Sprague-Dawley (225-250 g) rats were castrated and allowed 10 days postoperative recovery. Ten days post castration animals were instrumented with indwelling femoral venous and arterial catheters to facilitate remote infusions and blood sampling. On the day of the experiment, animals were allowed to acclimate to the procedure room while residing in their home cage. Basal blood samples were drawn from all animals. Following basal sampling, either vehicle (10% DMSO, 10% cremophor/saline), Antide (1.0 μg) or compound 11 (10 mg/kg) was administered intravenously. Blood samples were drawn 10, 60, 90, 120, 180, 240 minutes after injections. Blood was centrifuged, serum collected and stored in −70° freezer until assayed. Serum samples were analyzed using DSL-4600 ACTIVE LH coated-tube immunoradiometric assay kit from Diagnostic Systems Laboratories, Inc.
Surgical removal of the gonads removes circulating testosterone and eliminates the negative feedback of testosterone on the hypothalamus. […] This model seems suitable for evaluating small molecule GnRH antagonists.
Male Sprague-Dawley ([…]) rats were castrated via the scrotal approach under halothane anesthesia. Animals were allowed 14 days post operative recovery prior to study. Thirteen days following castration, animals were anesthetized with halothane and instrumented with indwelling jugular vein cannula. Details of the cannulation procedure have been described previously {Harms and Ojeda, 1974)}. On study day, animals were allowed to acclimate to the procedure room while residing in their home cage. Basal blood samples were drawn from all animals. Immediately following basal sampling, vehicle or test compounds were administered by various routes. The routes of administration employed were intravenous (iv), intramuscular (im), intraperitoneal (ip), subcutaneous (sc) and oral (po). Blood samples were drawn into heparin containing tubes at multiple time points post treatment. Blood was centrifuged immediately, plasma collected and stored in −20° freezer until assayed. Plasma samples were analyzed using DSL-4600 ACTIVE LH coated-tube immunoradiometric assay kit from Diagnostic Systems Laboratories, Inc.
Formulation #1 (denoted with superscript 1): 10% DMSO, 10% Cremophor EL and 80% physiological saline.
Formulation #2 (denoted with superscript 2): 10% Cremophor EL and 90% physiological saline.

A short description of data set [5]: Pharmacokinetic studies / bioavailability in rats. The class given is in vivo, rat.
A short description of data set [6]: Metabolism rate, pmol/min/mg at 1 μM, human. The class given is in vitro ADME. The conditions noted are these: 1 μM compound.
Setting [7] is: female, rat, plasma, po, 10 mg/kg, rat female, p.o. 10 mg/kg, 5 mg/ml solution in 10% DMSO 10% cremophor 80% saline.

Consider 20 compounds from US7101878B1 (Agouron Pharmaceuticals, Inc., priority 1998, dated 2006).

The structures appear in SMILES notation.

As usually defined, the IC50 is the concentration that inhibits the measured activity by half. As for `Cc1cc2c(cc1Cc1ccc(C(=O)NCC3CCC(CN)CC3)o1)C(C)(C)CCC2(C)C` (stereo not shown) [Compound 75], the IC50 amounted to 115 nM in data set [1], 740 nM in data set [2] and 710 nM in data set [3].

Regarding `Cc1cc2c(cc1Cc1ccc(C(=O)NCC3CCC(CNCc4cc(=O)[nH]c(=O)[nH]4)CC3)o1)C(C)(C)CCC2(C)C` (stereo not shown) [Compound 91], the IC50 in data set [1] is 120 nM; in data set [2] it was 950 nM; in data set [3], 790 nM.

As to `Cc1cc2c(cc1Cc1ccc(C(=O)NCC3CCC(CNc4ncc(C#N)c(N)n4)CC3)o1)C(C)(C)CCC2(C)C` (stereo not shown) [Compound 94], the IC50 in data set [1] amounted to 315 nM; in data set [2], 1490 nM; in data set [3] it was 1300 nM.

Take `COc1ccc(OC)c(NC(=O)c2ccc(Cc3cc4c(cc3C)C(C)(C)CCC4(C)C)o2)c1` [Compound 98]: the concentration for half-maximal inhibition (IC50) in data set [1] was found to be 80 nM; in data set [2], 220 nM; in data set [3], 84 nM.

For the compound `Cc1cc2c(cc1Cc1ccc(C(=O)NCC3CCCC(CNC(=O)C(F)(F)F)C3)o1)C(C)(C)CCC2(C)C` (stereo not shown) [Compound 105], the IC50 in data set [1] was 22 nM; in data set [2] it was 250 nM; in data set [3], 200 nM.

As for `Cc1cc2c(cc1Cc1ccc(C(=O)Nc3cccc(B(O)O)c3)o1)C(C)(C)CCC2(C)C` [Compound 119], the IC50 in data set [2] stood at 1300 nM. In addition, the “% Max LH Suppression” value is given as 63% in data set [4] (5.0 mg/kg iv), 61% in data set [4] (10 mg/kg iv), 79% in data set [4] (20 mg/kg ip) and 63% in data set [4] (20 mg/kg po). Moreover, the “time of % Max LH Suppression” value in data set [4] (5.0 mg/kg iv) was determined as 1 h; in data set [4] (10 mg/kg iv) it was 1 h; in data set [4] (20 mg/kg ip) it was 2 h; in data set [4] (20 mg/kg po) it was 2 h. For the same compound, the “≧50% Suppression Duration” value in data set [4] (5.0 mg/kg iv) was determined as 1 h; in data set [4] (10 mg/kg iv), 1 h; in data set [4] (20 mg/kg ip), 2 h; in data set [4] (20 mg/kg po), 2 h. Moreover, the “Range of Plasma Conc.” value is 0.1 µM in data set [4] (20 mg/kg po) and 0.2 µM in data set [4] (20 mg/kg sc).

Take `COC(CCCNC(=O)c1ccc(Cc2cc3c(cc2C)C(C)(C)CCC3(C)C)o1)OC` [Compound 125]: the IC50 is 135 nM in data set [1], 560 nM in data set [2] and 1050 nM in data set [3].

With `Cc1cc2c(cc1Cc1ccc(C(=O)NCC3CCN(c4nccc(NCC5CCCO5)n4)CC3)o1)C(C)(C)CCC2(C)C` (stereo not shown) [Compound 128], the IC50 in data set [1] came out at 220 nM; in data set [2], 170 nM; in data set [3] it was 220 nM.

With `Cc1cc2c(cc1Cc1ccc(C(=O)NCC3CCCC(CNc4ncccn4)C3)o1)C(C)(C)CCC2(C)C` (stereo not shown) [Compound 138], the IC50 was determined as 200 nM in data set [1], 1630 nM in data set [2] and 1570 nM in data set [3].

Regarding `Cc1cc2c(cc1Cc1ccc(C(=O)NCc3cccc(CN)c3)o1)C(C)(C)CCC2(C)C` [Compound 139], the IC50 is 110 nM in data set [1], 113 nM in data set [2] and 150 nM in data set [3].

Consider `Cc1cc2c(cc1Cc1ccc(C(=O)NCc3ccc(CNc4nccc(NCC5CCCO5)n4)cc3)o1)C(C)(C)CCC2(C)C` (stereo not shown) [Compound 141], for which the IC50 worked out at 150 nM in data set [1], 35 nM in data set [2] and 64 nM in data set [3].

Regarding `COCCCNc1ccnc(NCc2cccc(CNC(=O)c3ccc(Cc4cc5c(cc4C)C(C)(C)CCC5(C)C)o3)c2)n1` [Compound 153], the IC50 was 120 nM in data set [1], 11 nM in data set [2] and 21 nM in data set [3].

As for `COc1cc(OC)c(C(C)=O)cc1NC(=O)c1ccc(Cc2cc3c(cc2C)C(C)(C)CCC3(C)C)o1` [Compound 170], the IC50 in data set [1] stood at 50 nM; in data set [2], 30 nM; in data set [3], 22 nM. In addition, the Fp.o. in data set [5] (rat male, p.o. 20 mg/kg, vehicle per footnote (DMSO/cremophor/saline)) is 0 (20 mg/kg)^7%.

For `Cc1cc2c(cc1Cc1ccc(C(=O)NC[C@H]3CC[C@H](CNc4ccnc(NC[C@@H]5CCCO5)n4)CC3)o1)C(C)(C)CCC2(C)C` [Compound 174], the IC50 in data set [1] came out at 220 nM; in data set [2], 385 nM; in data set [3], 570 nM.

`COc1cc(OC)c(NC(=O)c2ccc(Cc3cc(C)cc4c3OCCC4(C)C)o2)c(OC)c1` [Compound 190.5]: the IC50 in data set [1] was 350 nM. For the same compound, the “Human pmol/min/mg 1 μM” value in data set [6] is on record as 1124 pmol/min/mg.

As to `COc1cc(OC)c(NC(=O)c2ccc(Cc3cc(C(C)(C)C)ccc3OC)o2)c(OC)c1` [Compound 203], the IC50 in data set [1] was found to be 130 nM; in data set [2] it was 58 nM; in data set [3], 62 nM.

In the case of `CCC(C)(C)c1ccc(OC)c(Cc2ccc(C(=O)Nc3c(OC)cccc3OC)o2)c1` [Compound 231], the values for the IC50 in data set [1], in data set [2] and in data set [3] were 5 nM, 51 nM and 24 nM, respectively.

Take `CCC(C)(C)c1ccc(OC)c(Cc2ccc(C(=O)Nc3c(OC)cc(OC)cc3OC)o2)c1` [Compound 232]: the IC50 amounted to 19 nM in data set [1], 5.7 nM in data set [2] and 9 nM in data set [3].

Usually Cmax stands for the peak of the concentration-time curve. One may read the Tmax as the time at which the peak concentration occurs. As usually defined, the half-life is the time needed for the level to fall by half in the phase considered. Lower therefore signals fast loss. For `COc1cc(OC)c(NC(=O)c2ccc(Cc3c(OC)cc(C)c(Cl)c3C)o2)c(OC)c1` [Compound 299], the IC50 in data set [1] was determined as 80 nM; in data set [2], 290 nM; in data set [3] it was 105 nM. The compound also yielded a Cmax in data set [5] (setting [7]) of 1740 nM. Further, the Tmax in data set [5] (setting [7]) worked out at 1 h. In data set [5] (female, rat, plasma, rat female), this compound had a half-life of 2.4 h. In data set [5] (rat female, 5 mg/ml solution in 10% DMSO 10% cremophor 80% saline), the Fp.o. is given as 72% (10 mg/kg)^10.

For `COc1cc(OC)c(NC(=O)c2ccc(Cc3cc(-c4ccccc4)c(C)cc3C)o2)c(OC)c1` [Compound 302], the half-inhibitory concentration (IC50) in data set [1] turned out to be 167 nM; in data set [2], 220 nM; in data set [3], 119 nM.
